Assay results as given in ChEMBL document CHEMBL4419174, “Small molecule inhibitors of apobec3g and apobec3b” (2015).
The source made the active and inactive calls. The rule behind the calls is not given here.

Experiments:
[1] = target: DNA dC->dU-editing enzyme APOBEC-3G (Homo sapiens, UniProt Q9HC16, C321A); assay: Inhibition of recombinant APOBEC3G C321A mutant (unknown origin) expressed in HEK293 cells assessed as reduction in cytosine deaminase activity using 5'-6-FAM and 3'-TAMRA quench molecule tagged cytosine-containing single-stranded DNA substrate incubated for 2 hrs by fluorescence-based assay; type: cell-based
Chain of DNA dC->dU-editing enzyme APOBEC-3G (Homo sapiens, UniProt Q9HC16, C321A) (Q9HC16 whole entry C321A): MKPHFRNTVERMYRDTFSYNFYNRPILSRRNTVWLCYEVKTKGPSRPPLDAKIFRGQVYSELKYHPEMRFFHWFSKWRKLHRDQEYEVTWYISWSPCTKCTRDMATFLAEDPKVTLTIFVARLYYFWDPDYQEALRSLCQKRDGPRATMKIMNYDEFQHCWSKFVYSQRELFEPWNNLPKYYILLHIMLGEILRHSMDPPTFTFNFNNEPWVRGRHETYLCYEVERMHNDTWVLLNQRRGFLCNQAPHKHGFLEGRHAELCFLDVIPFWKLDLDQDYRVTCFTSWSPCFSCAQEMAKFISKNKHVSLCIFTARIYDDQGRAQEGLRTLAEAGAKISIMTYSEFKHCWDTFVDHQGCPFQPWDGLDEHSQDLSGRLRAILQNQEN

[2] = target: DNA dC->dU-editing enzyme APOBEC-3B (Homo sapiens, UniProt Q9UH17); assay: Inhibition of recombinant APOBEC3B (unknown origin) expressed in HEK293 cells assessed as reduction in cytosine deaminase activity using 5'-6-FAM and 3'-TAMRA quench molecule tagged cytosine-containing single-stranded DNA substrate incubated for 2 hrs by fluorescence-based assay; type: cell-based
Chain of DNA dC->dU-editing enzyme APOBEC-3B (Q9UH17 whole entry): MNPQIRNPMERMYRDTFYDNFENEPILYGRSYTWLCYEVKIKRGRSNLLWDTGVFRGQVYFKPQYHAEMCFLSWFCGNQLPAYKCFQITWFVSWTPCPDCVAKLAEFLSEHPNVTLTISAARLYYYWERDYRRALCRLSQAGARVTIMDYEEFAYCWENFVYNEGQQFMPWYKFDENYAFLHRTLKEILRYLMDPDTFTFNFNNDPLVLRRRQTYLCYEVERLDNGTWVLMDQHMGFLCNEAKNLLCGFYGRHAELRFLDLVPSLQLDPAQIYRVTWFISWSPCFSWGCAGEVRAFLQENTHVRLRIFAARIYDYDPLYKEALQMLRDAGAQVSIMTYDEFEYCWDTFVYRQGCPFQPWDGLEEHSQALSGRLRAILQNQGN

[3] = target: T1, DNA dC->dU-editing enzyme APOBEC-3A (Homo sapiens, UniProt P31941); assay: (§1) Inhibition of recombinant APOBEC3A (unknown origin) expressed in HEK293 cells assessed as reduction in cytosine deaminase activity using 5'-6-FAM and 3'-TAMRA quench molecule tagged cytosine-containing single-stranded DNA substrate incubated for 2 hrs by fluorescence-based assay; type: cell-based
T1 sequence (P31941 whole entry): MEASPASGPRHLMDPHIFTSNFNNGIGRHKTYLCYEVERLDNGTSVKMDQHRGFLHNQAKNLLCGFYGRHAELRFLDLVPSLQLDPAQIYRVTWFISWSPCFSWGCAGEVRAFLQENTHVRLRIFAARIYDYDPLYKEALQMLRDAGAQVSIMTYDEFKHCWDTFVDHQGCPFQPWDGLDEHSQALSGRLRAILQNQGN

[4] = target: T2, DNA dC->dU-editing enzyme APOBEC-3G (Homo sapiens, UniProt Q9HC16); assay: (§2) Inhibition of recombinant APOBEC3G (unknown origin) expressed in HEK293 cells assessed as reduction in cytosine deaminase activity using 5'-6-FAM and 3'-TAMRA quench molecule tagged cytosine-containing single-stranded DNA substrate incubated for 2 hrs by fluorescence-based assay; type: cell-based
T2 sequence (Q9HC16 whole entry): as the sequence (Q9HC16 whole entry C321A) above, with A321C counted along it

[5] = Inhibition of recombinant APOBEC3G 2K3A mutant (unknown origin) expressed in HEK293 cells assessed as reduction in cytosine deaminase activity using 5'-6-FAM and 3'-TAMRA quench molecule tagged cytosine-containing single-stranded DNA substrate incubated for 2 hrs by fluorescence-based assay; type: cell-based, Homo sapiens
[6] = Drug metabolism in DMSO at 10 mM shaken gently at 25 degC exposed to visible light (300 W) in oxygen-saturated atmosphere assessed as 2-oxo-1,2-dihydroquinoline-4-carboxylic acid formation after 38 days by HPLC analysis
[7] = target: T1, DNA dC->dU-editing enzyme APOBEC-3A; conditions: HEK293, 200 uM
Description: Inhibition of recombinant APOBEC3A (unknown origin) expressed in HEK293 cells assessed as reduction in cytosine deaminase activity at 200 uM using 5'-6-FAM and 3'-TAMRA quench molecule tagged cytosine-containing single-stranded DNA substrate incubated for 2 hrs and measured on day 0 by fluorescence-based assay

[8] = Stability in DMSO at 10 mM shaken gently at 25 degC exposed toN2 atmosphere assessed as compound degradation measured over 9 hrs by HPLC analysis; type: physicochemical; conditions: 10000 µM
[9] = Drug metabolism in DMSO at 10 mM shaken gently at 25 degC open to atmosphere condition assessed as 2-oxo-1,2-dihydroquinoline-4-carboxylic acid formation after 38 days by HPLC analysis
[10] = Toxicity in human HeLa cells assessed as cell viability at 50 uM incubated for 5 days relative to control; type: cell-based; conditions: read-out: Activity
[11] = Stability in DMSO assessed as drug degradation incubated for 21 days by HPLC analysis; type: physicochemical; conditions: 504 h
[12] = target: T2, DNA dC->dU-editing enzyme APOBEC-3G; assay: as §2, with “activity at 200 uM” for “activity”, “hrs and measured on day 0” for “hrs”; type: cell-based
[13] = Stability in saturated N2 atmosphere assessed as drug degradation by NMR and LC-MS/MS analysis; type: physicochemical
[14] = Stability in DMSO assessed as drug degradation at -20 to 37 degC by HPLC analysis; type: physicochemical
[15] = target: T2, DNA dC->dU-editing enzyme APOBEC-3G; assay: as §2, with “hrs and measured on at days 3, 21, 38, and 72” for “hrs”; type: cell-based
[16] = Toxicity in HEK293T cells assessed as cell viability at 50 uM incubated for 5 days relative to control; type: cell-based, HEK-293T; conditions: human, read-out: Activity
[17] = Stability in DMSO assessed as light dependent drug degradation by HPLC analysis; type: physicochemical
[18] = target: T1, DNA dC->dU-editing enzyme APOBEC-3A; assay: as §1, with “activity at 200 uM” for “activity”, “assay relative to control” for “assay”; type: cell-based

| IC50 [1] [µM] | IC50 [2] [µM] | IC50 [3] [µM] | IC50 [4] [µM] | IC50 [5] [µM] | SMILES | also measured |
| --- | --- | --- | --- | --- | --- | --- |
| > 100 | > 100 | > 100 | 22 | > 100 | O=C(Nc1nnc(-c2ccncc2)s1)c1cc(Cl)nc2ccccc12 |  |
| 30 | 31 | > 100 | 18 | 55 | Nc1ccc2[nH]c(=O)cc(C(=O)Nc3nnc(-c4ccncc4)s3)c2c1 |  |
|  |  | 111 |  |  | O=C(O)c1cccc2c1C(=O)N(c1ccccc1)C2 |  |
| 20 | 37 | > 100 | 17 | 24 | COc1ccc2[nH]c(=O)cc(C(=O)Nc3nnc(-c4ccncc4)s3)c2c1 |  |
|  |  | > 100 | 60 | > 100 | O=C(Nc1nnc(-c2ccncc2)s1)c1ccnc(O)c1 |  |

Further lines, the molecule ahead of its results:

| SMILES | IC50 [1] [µM] | IC50 [2] [µM] | IC50 [3] [µM] | IC50 [4] [µM] | IC50 [5] [µM] | also measured |
| --- | --- | --- | --- | --- | --- | --- |
| O=C(Nc1nnc(-c2ccncc2)s1)c1ccc(O)nc1 | 31 | 30 | 87 | 21 |  |  |
| N#Cc1ncnn1C(=O)c1cc(=O)[nH]c2ccccc12 | > 100 | > 100 | > 100 | 15 | > 100 |  |
| Cc1ccc(-c2cc(C(=O)Nc3nnc(-c4ccncc4)s3)c3ccccc3n2)o1 |  |  |  |  |  | Drug metabolism [6]: Metabolite detected; inhibition [7]: inactive; Stability [8]: Stable; Drug metabolism [9]: Metabolite detected; viability at 120 h, 50 µM [10]: > 85%; Stability [11]: Unstable; inhibition [12]: inactive; Stability [13]: Stable; Stability [14]: Unstable; inhibition [15]: inactive; viability at 120 h, 50 µM [16]: > 85%; Stability [17]: Unstable |
| O=C(Nc1nnc(-c2ccncc2)s1)c1cc(Br)nc2ccccc12 | 52 | 65 | 75 | 32 |  |  |
| O=C(Nc1nnc(-c2ccncc2)s1)c1cc(=O)[nH]c2ccccc12 | > 100 | > 100 | > 100 | 90 | > 100 | inhibition [18]: 50% |
| O=C(Nc1nnc(-c2ccncc2)s1)c1cc(=O)[nH]c2ccc([N+](=O)[O-])cc12 | 23 | 31 | > 100 | 12 | 74 |  |
